Test results reported in article PMC7177833, “2-Aminopyridine Analogs Inhibit Both Enzymes of the Glyoxylate Shunt in Pseudomonas aeruginosa” (International Journal of Molecular Sciences, 2020).
In brackets after ≈: the same amount, converted by molar mass. Like-named read-outs stand apart in the source and are kept apart here.

Key:
P. aeruginosa PAO1 = assay: Antibacterial growth assay (OD600, 18 h) in LB or M9-acetate; assay type: cell-based; details: Pseudomonas aeruginosa; for inhibition at 200 µM: final optical density; for MIC: PAO1, MIC = lowest concentration inhibiting >75% of growth
Procedure: Growth assays were carried out using clear, U-bottom, sterile 96-well plates (Thermo Fisher Scientific, Bishop’s Stortford, UK). P. aeruginosa PAO1 overnight cultures were diluted to a starting OD600 of 0.05 in LB medium or M9 medium supplemented with 0.5% acetate. The test compounds were added to the indicated final concentrations, and the plates were covered with gas-permeable adhesive seals (Scientific Laboratory Supplies, Nottingham, UK). Assay controls included 1% DMSO, a positive antibiotic control (ciprofloxacin, 1 µg/mL), and medium-only wells as a control for background absorbance. […]

[1] = Metabolic stability in rat liver microsomes; assay type: in vitro ADME; details: RLM; for Clh, int (predicted hepatic clearance): scaled; for Clh (predicted in vivo hepatic clearance): well-stirred model; for half-life at 0.5 µM / microsomal CLint at 0.5 µM: rat, pooled rat liver microsomes, pH 7.4
Procedure: The metabolic stability of the test compounds was measured following incubation with liver microsomes from humans (BioIVT, lot no. IHG; West Sussex, UK) and rats (BD Gentest, lot no. 60614; BD Biosciences, Milan, Italy). Verapamil and dextromethorphan were used as positive controls. An automated incubation procedure was performed using the RSP Freedom Evo liquid dispensing and incubation system (TECAN, Milan, Italy). Five microliters of 50 µM test compound or positive control were added to 445 µL of microsomal suspension in 96 deep-well plates. The microsomal preparation comprised 0.56 mg/mL of pooled and homogenized liver microsomes suspended in 50 mM potassium phosphate buffer, pH 7.4. After 5 min at 37 °C, the reactions were initiated by adding 50 µL of prewarmed NADPH regenerating buffer to each sample. The regenerating buffer comprised a 2% NaHCO3 solution containing 1.7 mg NADP, 7.8 mg glucose-6-phosphate, and 6 units of glucose-6-phosphate dehydrogenase per mL. The samples were incubated at 37 °C, and 50 µL aliquots were withdrawn after 0, 3, 10, 15, 30, and 45 min and quenched in 150 µL acetonitrile. […] The analytical column was a Synergi “Max-RP” reverse phase C12 with TMS endcapping (30 mm × 2 mm, 4 µm particle size) (Phenomenex, Inc., Bologna, Italy). The column temperature was maintained at 60 °C. […] Analytes were quantified in multiple reaction-monitoring mode. Peak areas were integrated using Integrator Software from Agilent (Agilent Technologies, Milan, Italy) and were divided by the peak areas of the internal standard. The percentage of parent compound remaining was calculated by normalizing the peak area ratio of the parent compound to that of the internal standard at time 0. The half-lives of compound metabolism were derived from the linear portion of the slope of ln percent parent compound vs time. Intrinsic clearance in liver microsomes was estimated from: (1) Clint=k×(V/M) (2) Clh, int=(Clint (×1st Scaling factor)×2^ndScaling factor) (3) Clh=(Q×Clh, int)/(Q+Clh, int).
Here, k is the rate of depletion of the parent compound ([…]), V is the volume of the reaction mixture in mL, and M is the concentration of microsomal protein (in mg/mL). The amounts of protein in the incubations were scaled relative to the average liver- and body-mass of each species to obtain intrinsic hepatic clearance (Clh, int, in […]) (Table S3). These scaling factors were used along with the average hepatic blood flow (Q, in […]) of each species to obtain in vivo correlations (Clh, in mL/min/kg) using the well-stirred model.

[2] = molecular target: T1, MSPa (malate synthase G from P. aeruginosa) (Pseudomonas aeruginosa, UniProt Q9I636); assay: Inhibition of purified MSPa enzymatic activity; assay type: biochemical; details: for inhibition at 75 µM: read-out: Enzyme Inhibition (%) at 75 µM MSPa
T1 construct: made in house
Procedure: The enzymatic activity of purified ICLPa and MSPa was assayed essentially as previously described. Compounds were added to the reaction mixtures (minus substrates) and incubated for 5 min at 37 °C. The enzyme concentration in the reaction mixtures was 170 nM for ICL and 25 nM for MS (based on the concentration of the monomer in each case). […] The reactions were initiated by the addition of pH-adjusted substrates, and the initial rates were recorded as A324 nm (for ICLPa) and A412 nm (for MSPa) using a Biospectrometer (Eppendorf, Stevenage, UK). Substrate turnover was calculated from the molar extinction coefficient of the assay products: Glyoxylate-phenylhydrazone (16,800/M/cm) for ICLPa and 2-nitro-5-thiobenzoic acid (14,150/M/cm) for MSPa.
All data fitting was performed with GraphPad Prism version 7.04 (GraphPad Software, Inc., La Jolla, CA, USA). The solid lines are the result of fitting the data to the equations denoted in relevant experimental sections. IC50 values were determined by a nonlinear fit using the equation for sigmoidal dose-response with variable slope. In all graphs, unless otherwise stated, the data points are the mean of experimental triplicates, and all error bars correspond to ± standard deviation.

[3] = PAO1, LB medium, read-out: PAO1 Growth Inhibition (%) at 200 µM LB
[4] = PAO1, M9-acetate medium, read-out: PAO1 Growth Inhibition (%) at 200 µM M9ac
[5] = M9 medium with 0.5% acetate, read-out: MIC M9ac

T1 sequence (Q9I636 whole entry): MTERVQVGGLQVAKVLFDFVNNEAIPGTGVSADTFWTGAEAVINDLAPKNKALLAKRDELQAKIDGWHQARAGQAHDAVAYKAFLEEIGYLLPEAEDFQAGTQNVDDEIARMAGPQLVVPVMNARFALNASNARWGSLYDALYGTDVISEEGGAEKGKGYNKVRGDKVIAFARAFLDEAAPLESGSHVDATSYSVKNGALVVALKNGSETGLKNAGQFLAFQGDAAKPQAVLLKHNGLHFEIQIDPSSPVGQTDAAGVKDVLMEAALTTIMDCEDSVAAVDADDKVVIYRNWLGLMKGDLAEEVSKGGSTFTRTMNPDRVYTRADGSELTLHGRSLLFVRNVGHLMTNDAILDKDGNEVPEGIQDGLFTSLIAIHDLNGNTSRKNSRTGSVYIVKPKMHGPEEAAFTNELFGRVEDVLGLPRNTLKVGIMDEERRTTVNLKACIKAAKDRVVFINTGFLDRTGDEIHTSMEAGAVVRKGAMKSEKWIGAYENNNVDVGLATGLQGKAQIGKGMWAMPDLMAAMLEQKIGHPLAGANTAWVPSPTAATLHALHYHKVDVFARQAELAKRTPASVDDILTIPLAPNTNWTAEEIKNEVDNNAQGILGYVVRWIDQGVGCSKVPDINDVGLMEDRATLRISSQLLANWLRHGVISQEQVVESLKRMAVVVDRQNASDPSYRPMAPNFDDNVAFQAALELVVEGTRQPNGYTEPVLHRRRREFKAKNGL

SMILES	inhibition at 200 µM (P. aeruginosa PAO1; [3]) [%]	inhibition at 200 µM (P. aeruginosa PAO1; [4]) [%]	MIC (P. aeruginosa PAO1; LB medium, read-out: MIC LB) [µM]	MIC (P. aeruginosa PAO1; [5]) [µM]	Clh, int (predicted hepatic clearance) [1] [mL/min/kg]	Clh (predicted in vivo hepatic clearance) [1] [mL/min/kg]	half-life at 0.5 µM [1] [min]	microsomal CLint at 0.5 µM [1] [µL/min/mg]	IC50 [2] [µM]	inhibition at 75 µM ([2]; 75 µM compound) [%]	Enzyme Inhibition (%) at 75 µM MSPa ([2]; 75 µM compound) [%]
Nc1cc(Cl)ccn1 [Compound 2-AP, 2-amino-4-chloropyridine, reference compound]	0	8	> 200	> 200	14.63	12.48	220	6.33	> 75	18.2	
CC(C)(C)OC(=O)/N=C(\NC(=O)OC(C)(C)C)Nc1cc(C#N)ccn1 [SB023]	0	97	> 200	13.5 (≈ 4.88 µg/mL)	124.58	50.53	25.8	53.9	14.5	90.4	
CC(C)(C)OC(=O)/N=C(\NC(=O)OC(C)(C)C)Nc1cc(Cl)ccn1 [SB002]	0	100	> 200	1.6 (≈ 0.593 µg/mL)	62.99	36.18	51	27.3	4.5	> 90	94.5
